{"source": "patent US9132108B2", "about": "“Pharmaceutical composition for ameliorating and/or preventing leptin resistance, and use thereof” (HIROSHIMA UNIVERSITY, priority 2009, dated 2015)", "type_in_all_cases": "in vivo, mouse", "key": {"[1]": {"tested_on": "blood glucose level", "assay": "Glucose tolerance test in leptin-resistant mice (Example 11)", "settings": "3 hours after glucose 2 g/kg i.p.; 3 mg/kg per day orally, 3 weeks; vs control group; P<0.07 in t-test", "protocol": "Similarly with Example 8, 4 weeks-old male mice (C57BL/6 Cr Slc) had been given high-fat diet for 6 months so that leptin resistance would be induced in the mice. Thereafter, the mice were divided into two groups (each consisting of 8 mice), and the mice of individual groups were given the following diets for 3 weeks. • Control group: normal diet (10 kcal % fat) only • Flurbiprofen-administered group: normal diet+flurbiprofen Flurbiprofen (F8514, produced by SIGMA) was diluted with drinking water so that the administration amount of flurbiprofen would be 3 mg/kg per day, and was orally administered to the mice in the form of drinking water. The mice to which flurbiprofen had been administered for 3 weeks were subjected to a glucose tolerance test. In Example 11, mice were fasted overnight for 17 hours from between 17:00 and 18:00 of the previous day, and fasted blood glucose level (pre) was measured by Freestyle freedom (NIPRO CORPORATION, blood glucose self-monitoring system) at 10:00 to 11:00. Thereafter, glucose was intraperitoneally (i.p.) administered so that the administration amount of glucose would be 2 g/kg. Blood glucose level was measured using Freestyle freedom (NIPRO CORPORATION, blood glucose self-monitoring system) 30 minutes, 1 hour, 2 hours, 3 hours, and 4 hours after glucose administration. FIG. 17 is a graph showing the result of the glucose tolerance test. […]"}, "[2]": {"tested_on": "mice given high-fat diet (leptin resistance)", "assay": "Leptin-induced inhibition of food intake (Example 7)", "settings": "Group 4 (high-fat diet+flurbiprofen); 10 mg/kg per day orally, 8 weeks; leptin 0.5 mg/kg i.p.; no significant difference vs Group 1", "protocol": "Specifically, 4 weeks-old male mice (C57BL/6 Cr Slc) were divided into four groups each consisting of 6-8 mice. Mice of individual groups were given diets as follows for 8 weeks similarly with Example 5. • Group 1: Normal diet (10 kcal % fat) only • Group 2: High-fat diet (60 kcal % fat) only • Group 3: Normal diet+flurbiprofen • Group 4: High-fat diet+flurbiprofen\nFlurbiprofen (F8514, produced by SIGMA) was diluted with drinking water so that the administration amount of flurbiprofen would be 10 mg/kg per day, and was orally administered to the mice in the form of drinking water.\nFIG. 11 is a drawing showing the procedure of the test in Example 7. […] The mice were then habituated for 3 days. Day 0 was the date when the isolation started. In order to eliminate the influence of injection on feeding behavior, 5 mL/kg of physiological saline was intraperitoneally (i.p.) administered as dummy on Days 3 and 4. […]\nSubsequently, 0.5 mg/kg of leptin (498-OB, rmLeptin, produced by R&D systems) was intraperitoneally (i.p.) administered on Day 6 and the amount of food intake up to 24 hours after the leptin administration was measured on Day 7. Using the ratio of the amount of food intake on Days 6 and 7 to the amount of food intake on Days 5 and 6 as a reference index, what influence leptin had on the amount of food intake (rate of change in amount of food intake) was analyzed. […]"}, "[3]": {"tested_on": "mice given high-fat diet for 6 months (leptin resistance)", "assay": "Visceral fat of leptin-resistant mice, therapeutic effect (Example 8)", "settings": "3 weeks after flurbiprofen administration, 3 mg/kg per day orally; vs control group; P<0.01", "description": "In Example 8, effectiveness of flurbiprofen in ameliorating leptin resistance was confirmed by measuring a change in body weight of mice as a reference index. Specifically, 4 weeks-old male mice (C57BL/6 Cr Slc) had been given high-fat diet for 6 months so that leptin resistance would be induced in the mice. Thereafter, the mice were divided into two groups (each consisting of 14 mice), and the mice of individual groups were given the following diets for 3 weeks. • Control group (Cont): normal diet (10 kcal % fat) only • Flurbiprofen-administered group (Ful): normal diet+flurbiprofen Flurbiprofen (F8514, produced by SIGMA) was diluted with drinking water so that the administration amount of flurbiprofen would be 3 mg/kg per day, and was orally administered to the mice in the form of drinking water. The rates of change in body weight of the mice of individual groups were measured with the date when administration of flurbiprofen started (0 week) as a reference. Further, the amount of visceral fat (g) was measured. The visceral fat was extracted from abdomens of the mice and wet weight thereof was measured. FIG. 14 is a graph showing the amount of visceral fat (g) of the mice of the control group and the mice of the flurbiprofen-administered group which had been given normal diet for 3 weeks. […]"}, "[4]": {"tested_on": "mice", "assay": "Amount of mice water intake (Example 12)", "settings": "10 mg/kg per day orally in drinking water; normal or high-fat diet", "protocol": "In order to measure the amount of mice water intake, 4 weeks-old male mice (C57BL/6 Cr Slc) were divided into four groups (each consisting of 7-8 mice), were isolated from one another so that there would be one mouse per cage. The mice were then habituated for 2 days. The amount of mice water intake was measured every 24 hours for 4 days from the forenoon on the second day of the habituation, and the amount of mice water intake for 4 days was summed up. • Group 1: Normal diet (10 kcal % fat) only • Group 2: High-fat diet (60 kcal % fat) only • Group 3: Normal diet+flurbiprofen • Group 4: High-fat diet+flurbiprofen Flurbiprofen (F8514, produced by SIGMA) was diluted with drinking water so that the administration amount of flurbiprofen would be 10 mg/kg per day, and was orally administered to the mice in the form of drinking water. FIG. 18 is a graph showing the result of the measurement of the amount of mice water intake. Values in the graph of FIG. 18 are averages of the total amounts (g) of water intake of mice of each group for 4 days (± their standard deviations) (n=7-8 with respect to each group). Further, statistic analysis was carried out using t-test."}}}
{"smiles": "C[C@@H](C(=O)O)c1ccc(-c2ccccc2)c(F)c1", "note": "[flurbiprofen]", "values": [{"measurement": "blood glucose level in glucose tolerance test", "setting": "[1]", "value": "reduced blood glucose level"}, {"measurement": "rate of change in amount of food intake after leptin administration", "setting": "[2]", "value": "reduced food intake caused by leptin"}, {"measurement": "amount of visceral fat", "setting": "[3]", "value": "significantly decreased"}, {"measurement": "total amount of water intake for 4 days", "setting": "[4]", "value": "constant regardless of whether flurbiprofen was administered or not"}]}
